Measurements from US9346818B2 (priority 2012, dated 2016).
“Also recorded” adds a separate entry of the source.

Experiments:
white mice = assay: in vivo; conditions: for Mortality (%) / Number of death: 5 animals
Protocol: (§1) Firstly, preliminary tests were performed, in order to determine the concentration of each compound, with just 0% mortality or just 100% mortality, before starting the formal tests. The animals were divided into groups by weight, various dosages of drugs were administered between 0%-100%. Dosage volume: 10 ml/kg. Dosage manner: intravenous injection or intragastric administration.
(§2) The animals were divided into 6 groups, with 5 animals per group.
(§3) The animals were divided into 6 groups, with 5 animals per group. […] Each animal was fasted 12 h before administration.
(§4) The animals were divided into 5 groups, with 5 animals per group.
(§5) The animals were divided into 5 groups, with 5 animals per group. […] Each animal was fasted 12 h before administration.
(§6) The toxic reaction and death of the animals after administration were observed, and mortality was counted. The results were analyzed with LD50 data processing software.

in vivo = conditions: mouse, in vivo
Protocol: as §1, §2, §3, §4, §5, §6

[1] = test system: learning and memory disorder induced by intracerebroventricular injection of Aβ1-42; assay: Morris water maze test, rats with intracerebroventricular injection of Aβ1-42; assay type: in vivo; conditions: for The period of reaching the platform for the first time (latent period) / times of crossing platform: 8 days
Protocol: The model of learning and memory disorder induced after intracerebroventricular injection of Aβ1-42 is the most common animal model for evaluating whether a compound has the effect of improving the learning and memory. […] Morris water maze test and the model of learning and memory disorder induced by intracerebroventricular injection of Aβ1-42 were employed in the present research, and the improvement effects of I-33 on learning and memory of rats at various concentration (0.7 mg/Kg, 3.5 mg/Kg, and 7 mg/Kg) were evaluated.
SD, male (220±20 g), the animals were fed in light: dark cycle (12 h/12 h) in a cleaning level of animal room, ad lib. The tests were performed after 3 days acclimation in the animal room. Aβ1-42 was formulated to 2 μg/μl according to the instruction of specification.
(1) Normal group: intracerebroventricular injection of physiological saline
(2) Model group with intracerebroventricular injection of Aβ1-42: intracerebroventricular injection of Aβ1-42
(4) I-33 (low concentration group): I-33 (0.7 mg/Kg)+intracerebroventricular injection of Aβ1-42
(5) I-33 (medium concentration group): I-33 (3.5 mg/Kg)+intracerebroventricular injection of Aβ1-42
(6) I-33 (high concentration group): I-33 (7 mg/Kg)+intracerebroventricular injection of Aβ1-42
Each rat in normal control group received intracerebroventricular injection of 5 μl of physiological saline, each rat in the other groups received intracerebroventricular injection of 5 μl of Aβ1-42. After the operation, the rats received the following tests after 1 week recovery period. […] The drugs were administered for 8 days, the training for water maze test was started on the 5th day, and the water maze test was formally started on the 9th day.

[2] = Protocol: 0.3 ml of whole blood was collected at corresponding time point, anticoagulating with heparin, centrifuged at 4000 rpm for 10 min, the plasma was separated, 50 μL the plasma sample of rats was collected, 100 μL acetonitrile (containing 0.1% formic acid) was added, mixed under vortex for 1 min, centrifuged (12000 rpm) for 10 min, the supernatant was collected, analyzed with liquid chromatography-mass spectrometer, the area of peaks were recorded and used for the calculation of blood drug concentration, and the drug-time curve was plotted.
acetylcholinesterase = acetylcholinesterase (Homo sapiens (Human), UniProt P22303); assay: biochemical; assay type: biochemical
acetylcholinesterase, sequence (P22303 32-614, species assumed): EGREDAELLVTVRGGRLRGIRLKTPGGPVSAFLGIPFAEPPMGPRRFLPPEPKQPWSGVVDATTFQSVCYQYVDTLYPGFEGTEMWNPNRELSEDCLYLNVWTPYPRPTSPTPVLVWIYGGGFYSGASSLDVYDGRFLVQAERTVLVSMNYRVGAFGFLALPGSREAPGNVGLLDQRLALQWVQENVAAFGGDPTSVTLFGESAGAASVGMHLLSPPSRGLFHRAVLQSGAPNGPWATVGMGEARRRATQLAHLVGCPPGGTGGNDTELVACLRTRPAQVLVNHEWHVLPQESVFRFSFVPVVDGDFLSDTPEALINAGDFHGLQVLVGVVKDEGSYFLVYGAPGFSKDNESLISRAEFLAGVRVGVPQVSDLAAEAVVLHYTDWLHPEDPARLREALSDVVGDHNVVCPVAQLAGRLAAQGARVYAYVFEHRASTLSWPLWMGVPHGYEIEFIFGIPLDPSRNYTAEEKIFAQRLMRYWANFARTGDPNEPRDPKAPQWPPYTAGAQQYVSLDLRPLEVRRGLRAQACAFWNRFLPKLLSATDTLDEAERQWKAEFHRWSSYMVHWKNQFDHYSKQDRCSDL

[3] = Intragastric administration 215.23 mg/kg
[4] = Intragastric administration 239.15 mg/kg
[5] = Intragastric administration 265.72 mg/kg
[6] = Intragastric administration 295.25 mg/kg
[7] = Intragastric administration 450.00 mg/kg
[8] = Intragastric administration 500.00 mg/kg
[9] = Intravenous injection 16.18 mg/kg
[10] = Intravenous injection 20.48 mg/kg
[11] = Intravenous injection 25.60 mg/kg
[12] = Intravenous injection 32.00 mg/kg
[13] = Intravenous injection 40.00 mg/kg
[14] = Intravenous injection 50.00 mg/kg
[15] = Aβ1-42 rats, DPH 3 mg/Kg, I-33 all dosages tested
[16] = high concentration 7 mg/Kg intragastric, Aβ1-42 rats
[17] = low concentration 0.7 mg/Kg intragastric, Aβ1-42 rats
[18] = medium concentration 3.5 mg/Kg intragastric, Aβ1-42 rats

Cl.O=C1c2cc3c(cc2C2(CC2)N1CCC1CCN(Cc2ccccn2)CC1)OCO3 [Compound I-33, 6-[2-[1-(2-pyridylmethyl)-4-piperidyl]ethyl]spiro[[1,3]dioxolo[4,5-f]isoindole-7,1′-cyclopropane]-5-one hydrochloride]
Mortality (%) (white mice; [3]): 0%
Number of death (white mice; [3]): 0
Mortality (%) (white mice; [4]): 0%
Number of death (white mice; [4]): 1
Mortality (%) (white mice; [5]): 40%
Number of death (white mice; [5]): 2
Mortality (%) (white mice; [6]): 60%
Number of death (white mice; [6]): 3
Mortality (%) (white mice; [7]): 80%
Number of death (white mice; [7]): 4
Mortality (%) (white mice; [8]): 100%
Number of death (white mice; [8]): 5
Mortality (%) (white mice; [9]): 0%
Number of death (white mice; [9]): 0
Mortality (%) (white mice; [10]): 0%
Number of death (white mice; [10]): 0
Mortality (%) (white mice; [11]): 20%
Number of death (white mice; [11]): 1
Mortality (%) (white mice; [12]): 60%
Number of death (white mice; [12]): 3
Mortality (%) (white mice; [13]): 80%
Number of death (white mice; [13]): 4
Mortality (%) (white mice; [14]): 100%
Number of death (white mice; [14]): 5
median lethal dose by oral and intravenous administration, times of those of donepezil hydrochloride (white mice; oral and intravenous): 8-10 times
toxicity compared with donepezil hydrochloride (white mice; preliminary acute toxicity tests, hydrochloride): lower toxicity than donepezil hydrochloride; also recorded: much lower toxicity
LD50 (in vivo; iv): 31.3 mg/kg
LD50 (in vivo; po): 303 mg/kg
effect on period required for reaching the platform for the first time (latent period) [1, 15]: significantly shorten the period required for reaching the platform for the first time
effect on times of crossing the platform [1, 15]: significantly increases the times of crossing the platform
improvement of learning and memory disorder of rats induced by Aβ1-42 ([1]; Morris water maze, 0.7, 3.5 and 7 mg/Kg, hydrochloride): significantly improve the learning and memory disorder of rats induced by intracerebroventricular injection of Aβ1-42; also recorded: stronger effects of improving learning and memory
The period of reaching the platform for the first time (latent period) [1, 16]: 14.87 ± 3.62
times of crossing platform [1, 16]: 3.20 ± 0.36
The period of reaching the platform for the first time (latent period) [1, 17]: 21.37 ± 3.64
times of crossing platform [1, 17]: 3.00 ± 0.33
The period of reaching the platform for the first time (latent period) [1, 18]: 18.10 ± 6.54
times of crossing platform [1, 18]: 3.40 ± 0.43
t1/2z ([2]; rat plasma, oral 5 mg/kg): 2.085 ± 0.392
absorption degree (AUC) and peak concentration (Cmax) compared with donepezil hydrochloride ([2]; rat, oral, same dosage 5 mg/kg): significantly higher than those of donepezil hydrochloride
potency on acetylcholinesterase compared with positive control drug donepezil hydrochloride (acetylcholinesterase; in vitro, enzymology level): even lower
IC50 (acetylcholinesterase; read-out: IC50 (nM), inhibition activity on acetylcholinesterase): 950 nM
